Test results from publication PMC7819857, “Identification of Inhibitors of Integrin Cytoplasmic Domain Interactions With Syk” (Frontiers in Immunology, 2021).
Where two headings read alike, the source gives them in different places.

Key:
GST-free Syk(6-370) = target: T1, GST-free Syk(6-370) (Homo sapiens, UniProt P43405); experiment: Thermal denaturation assay (SYPRO orange); type: binding; details: Syk(6-370) 2 µM, dose-dependent
T1 construct: Syk 6-370 (GST tag removed by thrombin cleavage) was used; GST (N, cleaved yes); made in house; host or cells: E. coli BL21(DE3)
Method: In this assay, Syk 6-370 (GST tag removed by thrombin cleavage) was used. Thrombin (GE Healthcare cat#270846, reconstituted in PBS to 1 unit/ul) was applied to the GST-Syk 6-370 protein bound to the Glutathione Sepharose beads. The GST-tag was cleaved with 20 unit/1 ml of protein-GST beads in PBS overnight at room temperature. After chromatography and additional cleaning on GST-beads, the purified protein was verified by SDS-PAGE. For thermal denaturation experiments, GST-free Syk(6-370) was used at a final concentration of 2 µM and SYPRO orange (Thermo Scientific, cat# S6650) at a 0.08% (v/v) dilution (from a 5000x stock). Compounds were used at indicated concentrations. Numerous reaction buffers were initially screened, and a final buffer containing 25 mM HEPES (pH 7.5) with 100 mM NaCl was used. Assays were performed in 20 µl volumes, in triplicate, in 384-well plates (Applied Biosystems MicroAmp 384-well clear optical reaction plate, catalogue #4483285). Plates were sealed with Applied Biosystems Optical Adhesive Cover (cat#4360954) and centrifuged for 2 min at 800 × g at room temperature. Thermal denaturation was measured on a Quant Studio 6 Flex Real-time PCR system (Applied Biosystems). […]

[1] = target: T2, integrin β3 cytoplasmic domain (bβ3(fl)) : GST-Syk(6-370) (Homo sapiens, UniProt P43405); experiment: ELISA-based orthogonal assay, bβ3(fl) and GST-Syk(6-370); type: binding
T2 construct: the tandem SH2 domains of Syk (residues 6-370); made in house; host or cells: E. coli BL21(DE3)
Method: For ELISA-based assays, 96-well plates (Costar cat# 9018) were coated overnight at 4°C with neutravidin (Thermo Scientific, cat#31050) in 10 mM Tris pH 9 and 100 mM NaCl. After overnight incubation, non-specific binding sites were blocked with bovine serum albumin (BSA) (2% w/v) for at least 1 h at room temperature. Plates were washed in 25 mM HEPES pH 7.5, 100 mM NaCl, 0.1% BSA, and 0.01% TritonX-100 (assay buffer), and indicated biotinylated β3 peptide was incubated for at least 2 h at room temperature (0.5–3 ug/ml in di-H2O). After washing in the assay buffer, GST-fusion proteins were added (50 ul, indicated concentrations) and incubated at room temperature for 1 h in assay buffer. For compound inhibition studies, compounds were added to GST-fusion proteins (at indicated concentrations) before they were added to plates. Plates were washed 3× with assay buffer (200 ul) to remove unbound GST-fusion protein. Horseradish peroxidase (HRP)-conjugated anti-GST antibody [Polyclonal anti-GST(Z-5)-HRP, Santa Cruz Biotechnology, cat #sc-459 0.2 ug/ml] was incubated in washed plates in 50 ul assay buffer for 45 min at room temperature. After washing, the signal was generated with 1-step Ultra TMB-ELISA (Thermo Scientific, cat#34028), stopped with 2 N H2SO4, and read on a plate reader (SPARK 10M/Tecan) at 450 nm.
Figure 3 Dose-response curves in primary and orthogonal screens. (A) AlphaScreen dose-response curves. […] Data are expressed as mean fluorescence (Fl520) ± range from duplicates, and one representative experiment of “n” performed is shown. (B) Orthogonal ELISA-based dose-response assays. […] Data are expressed as mean abs450 ± SEM from triplicate determinations, and one of three representative experiments is shown. (C) Ceftazidime inhibition of β3 peptide binding to Syk from THP-1 whole cell lysate. THP-1 cell lysate (100 ug) was treated with or without ceftazidime (Ctaz) before incubation with β3-coated avidin-agarose beads, and bound Syk was measured by western blot (example shown in inset). Blank beads served as a negative control. […]

[2] = target: T3, integrin β3 cytoplasmic domain : tandem SH2 domains of Syk (GST-Syk(6-370)) (Homo sapiens, UniProt P43405); experiment: AlphaScreen of integrin β3 cytoplasmic domain peptide binding to GST-Syk(6-370); details: for fold difference in inhibition, primary screen over false-positive counter screen (hit criterion): re-sourced compounds, counter screen with biotinylated GST; for inhibition of fluorescent signal in the primary screen, re-sourced compounds (hit criterion): re-sourced from a separate commercial source, 25 uM in text, 30 uM in legend of Figure 2C
T3 construct: the tandem SH2 domains of Syk (residues 6-370); made in house; host or cells: E. coli BL21(DE3)
Method: The following HTS assay was developed to identify antagonists of the interaction between the integrin β3 cytoplasmic domain and the non-receptor tyrosine kinase Syk. […] ( Figure 1E ). Background signals in this assay were determined by omitting the integrin β3 peptide. Specific assay conditions are described in Table 1 . […] Then, either dimethyl sulfoxide control or compound was added, followed by biotinylated β3 peptide, and avidin-coated AlphaScreen donor beads. After a 4-h incubation period at room temperature (while protected from light), assays plates were read on an Infinite M1000 (Tecan) multiplate reader (Ex. 680/30; Em. 570/100).
Figure 3 Dose-response curves in primary and orthogonal screens. (A) AlphaScreen dose-response curves. […] Data are expressed as mean fluorescence (Fl520) ± range from duplicates, and one representative experiment of “n” performed is shown. (B) Orthogonal ELISA-based dose-response assays. […] Data are expressed as mean abs450 ± SEM from triplicate determinations, and one of three representative experiments is shown. (C) Ceftazidime inhibition of β3 peptide binding to Syk from THP-1 whole cell lysate. THP-1 cell lysate (100 ug) was treated with or without ceftazidime (Ctaz) before incubation with β3-coated avidin-agarose beads, and bound Syk was measured by western blot (example shown in inset). Blank beads served as a negative control. Equal β3 peptide loading was verified by probing blots with avidin-HRP (not shown).

[3] = Solubility under assay conditions; type: physicochemical
[4] = Figure 3A: biotinylated-b3(sh) peptide 30 nM, GST-Syk(6-370) 0.3 nM, read-out: IC50, AlphaScreen dose-response

| Compound | effect on melting temperature (Tm) of Syk(6-370) (GST-free Syk(6-370)) | inhibitory activity in ELISA-based orthogonal assay [1] | IC50 [2, 4] | IC50 ([2]; abstract summary for both compounds, read-out: IC50 range, inhibition of integrin β-subunit cytoplasmic domain binding to the tandem SH2 domains of Syk) | IC50 ([2]; as restated in the Discussion, read-out: IC50 in AlphaScreen assays) | IC50 ([2]; biotinylated-b3(sh) peptide 30 nM, GST-Syk(6-370) 0.3 nM, read-out: value printed in Figure 3A, AlphaScreen dose-response (no measure name)) | fold difference in inhibition, primary screen over false-positive counter screen (hit criterion) [2] | inhibition of fluorescent signal in the primary screen, re-sourced compounds (hit criterion) [2] | solubility under ELISA assay conditions ([3]; ELISA assay buffer, highest doses tested) | solubility for retest in primary and false-positive screens ([3]; re-sourced hit retest, 30 uM) |
| --- | --- | --- | --- | --- | --- | --- | --- | --- | --- | --- |
| NC(=O)c1cc[n+](CC2=C(C(=O)O)N3C(=O)[C@@H](NC(=O)[C@@H](c4ccccc4)S(=O)(=O)[O-])[C@H]3SC2)cc1 [cefsulodin] | decreased | remained active | 4.9 ± 4.2 µM | 1.02 to 4.9 µM | 4.2 µM | 4.89 ± 4.2 µM | greater than 3 fold | greater than 50% |  |  |
| C=C1c2cccc(O)c2C(=O)C2=C(O)[C@]3(O)C(=O)C(C(N)=O)=C(O)[C@@H](N(C)C)[C@@H]3[C@@H](O)[C@H]12 [methacycline] |  |  | 22.4 ± 4.1 µM |  |  |  | greater than 3 fold | greater than 50% | not soluble at the highest doses tested |  |
| CC[C@@]1(O)C(=O)OCc2c1cc1n(c2=O)Cc2cc3c(CN(C)C)c(O)ccc3nc2-1 [topotecan] |  |  |  |  |  |  |  |  |  | lack of solubility |
| neomycin sulfate |  | did not demonstrate inhibitory activity | 0.038 ± 0.019 µM |  |  |  | greater than 3 fold | greater than 50% |  |  |
